Source: ChEMBL document CHEMBL5338730, “Metabolism-Guided Selective Androgen Receptor Antagonists: Design, Synthesis, and Biological Evaluation for Activity against Enzalutamide-Resistant Prostate Cancer” (J Med Chem, 2023)

What was measured:
[1] = mouse, microsomes, 1 h, 50 µM
in vitro = details: mouse, microsomes
Description: Half life in mouse liver microsomes at 50 uM measured for 60 mins in presence of NADP+

| SMILES | CLH [1] [µL/min/mg] | half-life at 1 h, 50 µM (in vitro) [h] |
| --- | --- | --- |
| C[C@](O)(COc1ccc(C#N)cc1)C(=O)Nc1ccc(C#N)c(C(F)(F)F)c1 [ENOBOSARM] | 1400 | – |
| C[C@](O)(CS(=O)(=O)c1ccc(F)cc1)C(=O)Nc1ccc(C#N)c(C(F)(F)F)c1 [(R)-BICALUTAMIDE] | – | 10 |
